Results reported in patent US7064218B2, “Aromatic compounds and poly(oxyalkylene) containing aromatic compounds possessing antibacterial, antifungal or antitumor activity” (Genelabs Technologies, Inc., priority 2001, dated 2006).

Assays:
[1] = tested on: yeast and aspergillus species; assay: Minimum Inhibitory Concentration (MIC) assay, yeast and filamentous fungi; assay type: cell-based, Candida albicans; Aspergillus fumigatus; conditions: antifungal; complete inhibition of visible growth, 48 h at 35 C
Experimental: (§1) These assays are adapted from NCCLS protocols M7-A4 and M27-A (NCCLS vol 17:9 and vol 17:2) as modified by Sandven, S. Clin. Micro. (1999) 37:12, p. 3856–3859. MIC values for Aspergillus fumigatus were determined using NCCLS protocol M38-P.
(§2) All compounds were dissolved in 100% DMSO to a stock concentration of 10 mM and use fresh or stored at −80° C. Stock compounds were kept frozen until needed and used freshly with no more then one freeze-thaw cycle. When used for test purposes, compounds were diluted in the appropriate media depending on the organism being tested.
(§3) For yeast and aspergillus species, seven 1:2 serial dilutions of compound in appropriate media buffered with MOPS at pH 7.0 were prepared such that the final starting test compound concentrations were 50.0 uM for yeast and 50 uM aspergillus species. For bacteria, dilutions were made in growth media used for the particular bacteria being tested.
Five well-separated colonies from a 24 hr Sabouraud Dextrose plate incubated at 35 C were picked and resuspended into 5.0 ml of normal saline. The O.D.530 was read and the culture was adjusted to 0.5 McFarland units with normal saline. A 1:2000 dilution was made with RPMI 1640 media buffered with MOPS at pH 7.0 and 100 μL of this inoculum preparation was added to an equal volume of test compound-containing media. 25 μL of the redox indicator Alamar Blue (Biosource International) was added to each well and the plates were incubated for 48 h at 35 C. Wells having yeast growth changed color from blue to pink.
Inoculums are made by incubating Aspergillus fumigatus for 7 days at 35 C on potato dextrose agar slants. Slants are then covered with 1.0 ml of 0.85% saline, one drop of Tween 20 is added and colonies are teased with a sterile transfer loop to create a suspension which is allowed to sit for 5 min so heavier particles can drop out. The upper suspension is separated and adjusted to an optical density of 0.09 to 0.11. The resulting suspension is diluted 1:50 which yields 2× the final inoculum needed. Micro dilution trays are prepared as with yeast and incubated for 48 h at 35 C. For our purposes the MIC is defined as the lowest compound concentration at which no visible growth is observed after 48 h.

[2] = tested on: bacteria; assay: Minimum Inhibitory Concentration (MIC) assay, bacteria; assay type: cell-based; conditions: antibacterial; complete inhibition of visible growth
Experimental: as §1, §2, §3
Inoculums are made in the same manner as yeast except all dilutions are made in normal saline, with a final dilution of 1:200 and an inoculum of 10 μL.

SMILES	MIC [1]	MIC [2]
N=C(N)CNC(=O)c1cc(NC(=O)c2ccc(C(=O)Nc3cc(C(=O)NCC(=N)N)n(CC4CC4)c3)cc2)cn1CC1CC1 [Compound 284, N,N′-Bis-[5-(carbamimidoylmethylcarbamoyl)-1-cyclopropylmethyl-1H-pyrrol-3-yl]-terephthalamide]	< 45.5 µM	< 45.5 µM
CCCCn1cc(NC(=O)c2ccc(C(=O)Nc3cc(C(=O)NCC(=N)N)n(CCCC)c3)cc2)cc1C(=O)NCC(=N)N [Compound 287, N,N′-Bis-[1-butyl-5-(carbamimidoylmethyl-carbamoyl)-1H-pyrrol-3-yl]terephthalamide]	< 45.5 µM	< 45.5 µM
CCCCn1cc(NC(=O)c2ccc(C(=O)Nc3cc(C(=O)NCC(=N)NC)n(CCCC)c3)cc2)cc1C(=O)NCC(=N)NC [Compound 289, N,N′-Bis-[1-butyl-5-(methylcarbamimidoylmethyl-carbamoyl)-1H-pyrrol-3-yl]terephthalamide]	< 45.5 µM	< 45.5 µM
CCCCn1cc(NC(=O)c2ccc(C(=O)Nc3cc(C(=O)NCC(=N)NCC)n(CCCC)c3)cc2)cc1C(=O)NCC(=N)NCC [Compound 290, N,N′-Bis-[1-butyl-5-(ethylcarbamimidoylmethyl-carbamoyl)-1H-pyrrol-3-yl]terephthalamide]	< 45.5 µM	< 45.5 µM
N=C(N)CNC(=O)c1cc(NC(=O)c2ccc(C(=O)Nc3cc(C(=O)NCC(=N)N)n(CC4CC4)c3)nc2)cn1CC1CC1 [Compound 292, Pyridine-2,5-dicarboxylic acid bis{[5-(carbamimidoylmethyl-carbamoyl)-1-cyclopropylmethyl-1H-pyrrol-3-yl]-amide}]	< 45.5 µM	< 45.5 µM
N=C(N)CNC(=O)c1cc(NC(=O)c2cnc(C(=O)Nc3cc(C(=O)NCC(=N)N)n(CC4CC4)c3)cn2)cn1CC1CC1 [Compound 293, Pyrazine-2,5-dicarboxylic acid bis-{[5-(carbamimidoylmethyl-carbamoyl)-1-cyclopropylmethyl-1H-pyrrol-3-yl]-amide}]	< 45.5 µM	< 45.5 µM
N=C(N)CNC(=O)c1cc(NC(=O)C2=CC=C(C(=O)Nc3cc(C(=O)NCC(=N)N)n(CC4CC4)c3)CC2)cn1CC1CC1 [Compound 294, Cyclohexa-1,3-diene-1,4-dicarboxylic acid bis-{[5-(carbamimidoylmethyl-carbamoyl)-1-cyclopropylmethyl-1H-pyrrol-3-yl]-amide}]	< 45.5 µM	< 45.5 µM
N=C(N)CNC(=O)c1cc(NC(=O)c2cc(C(=O)Nc3cc(C(=O)NCC(=N)N)n(CC4CC4)c3)[nH]n2)cn1CC1CC1 [Compound 295, 1H-Pyrazole-3,5-dicarboxylic acid bis-{[5-(carbamimidoylmethyl-carbamoyl)-1-cyclopropylmethyl-1H-pyrrol-3-yl]-amide}]	< 45.5 µM	< 45.5 µM
